Results published in PMC10682503, “Structural and functional basis of inositol hexaphosphate stimulation of NHEJ through stabilization of Ku-XLF interaction” (Nucleic Acids Research, 2023).

How the values were obtained:
[1] = molecular target: T1, KuΔC (Ku heterodimer deleted of its C-terminal regions) (Homo sapiens, UniProt P12956+P13010); experiment: ITC, KuΔC with IP6; assay type: binding
T1 construct: heterodimer deleted of its C-terminal region (Ku70 1–544, Ku80 1–551); His-tag (10x His with TEV site, same vector as KuFL) (N); made in house; host or cells: Sf21 insect cells
Procedure: Purification of Ku full-length (KuFL) for cryo-EM experiments was carried out as described previously ([5]). Expression and purification of KuFL for biophysical experiments was carried out as described previously ([20]). The full-length human Ku heterodimer subunits (Ku70 1–609, Ku80 1–732) were cloned into a Multibac vector ([21]). The construct has a 10× His-tag and a TEV site on the N-terminus of Ku80 and no-tag on Ku70. Protein production was initiated in Sf21 cells by infection with the baculovirus stock at MOI of 5 × 10^−3 and cells were collected 5–6 days after the infection (3–4 days after the proliferation arrest). Cells were sonicated and the supernatant was incubated with Benzonase (300 units for 30 min at 4°C). The Ku heterodimer was purified on a NiNTA-Agarose affinity column (Protino, Macherey Nagel) with a 1 M NaCl wash step to remove DNA excess. The eluted Ku was then bound onto an anion exchange column (Resource Q, Cytiva) equilibrated in 20 mM Tris pH 8.0, 50 mM NaCl, 50 mM KCl, 10 mM β-mercaptoethanol and eluted with a salt gradient. […]
Calorimetry. Interactions between KuFL and inositol phosphates (IPs) (IP6 and IP6 analogues) were determined by Isothermal Titration Calorimetry (ITC) using a VP-ITC calorimeter (Malvern). […] The free energy of binding (ΔG) and the entropy (ΔS) were determined using the classical thermodynamic formula, ΔG = - RT ln(Ka) and ΔG = ΔH - TΔS. […]

Ku-DNA interaction = Ku-DNA interaction (Homo sapiens, UniProt P12956+P13010); experiment: Single-molecule colocalization (TIRF) of Ku-AF647 on 18 bp DNA; assay type: binding; conditions: IP6 10 μM
Procedure: Single molecule labelling, and flow channel preparation for single-molecule colocalization experiment are described in Supplemental Information. A single-molecule experiment was performed on a Total Internal Reflection Fluorescence (TIRF) microscope equipped with an inverted oil immersion objective (×100, 1.49 NA lens) coupled to 532 nm (Ultra-Laser, MGL-FN-532) and 639 nm (Ultra-Laser, MGL-FN-639) excitation lasers to excite the sample at TIRF illumination. A dichroic beam splitter (Semrock, Di03-635-t1) was used to split green and red signals, which were passed through narrow bandpass filters (Semrock, FF01-582/64 and FF01-680/42). The signals were collected by an electron-multiplying charge-coupled device (EM-CCD) (Andor, iXon897). Fluorescence beads (Invitrogen, Life Technologies Corporation, Eugene, OR) were used to map corresponding signals in green and red channels.
The BSA in the flow channel was washed with T50 buffer. […] Movies of 1 000 frames (33 Hz) were recorded with the red laser and both lasers turned on for the first 900 frames and last 100 frames, respectively. Four independent experiments were performed where at least 20 movies were recorded for each experimental condition. […]
Fluorescent labelling of Ku. […] The labelled protein was determined to have 50 % labelling efficiency, spectrophotometrically. […]

Chain of Ku-DNA interaction (P12956 whole entry): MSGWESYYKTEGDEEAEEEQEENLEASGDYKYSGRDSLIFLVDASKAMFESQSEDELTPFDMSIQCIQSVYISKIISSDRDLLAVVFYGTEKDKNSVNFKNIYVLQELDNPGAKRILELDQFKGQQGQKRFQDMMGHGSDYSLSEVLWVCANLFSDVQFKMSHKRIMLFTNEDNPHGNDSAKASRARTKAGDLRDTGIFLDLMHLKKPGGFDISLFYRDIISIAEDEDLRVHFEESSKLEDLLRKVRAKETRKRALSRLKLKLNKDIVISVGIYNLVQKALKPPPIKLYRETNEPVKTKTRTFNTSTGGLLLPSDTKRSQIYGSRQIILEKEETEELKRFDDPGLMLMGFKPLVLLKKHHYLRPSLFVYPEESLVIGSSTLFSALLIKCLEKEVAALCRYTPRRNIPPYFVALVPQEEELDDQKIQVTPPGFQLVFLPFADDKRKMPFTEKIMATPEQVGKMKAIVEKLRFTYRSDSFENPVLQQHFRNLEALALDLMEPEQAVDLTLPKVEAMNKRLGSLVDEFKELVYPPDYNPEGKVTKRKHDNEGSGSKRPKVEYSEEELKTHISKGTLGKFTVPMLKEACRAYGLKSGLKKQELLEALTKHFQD
Chain of Ku-DNA interaction (P13010 whole entry): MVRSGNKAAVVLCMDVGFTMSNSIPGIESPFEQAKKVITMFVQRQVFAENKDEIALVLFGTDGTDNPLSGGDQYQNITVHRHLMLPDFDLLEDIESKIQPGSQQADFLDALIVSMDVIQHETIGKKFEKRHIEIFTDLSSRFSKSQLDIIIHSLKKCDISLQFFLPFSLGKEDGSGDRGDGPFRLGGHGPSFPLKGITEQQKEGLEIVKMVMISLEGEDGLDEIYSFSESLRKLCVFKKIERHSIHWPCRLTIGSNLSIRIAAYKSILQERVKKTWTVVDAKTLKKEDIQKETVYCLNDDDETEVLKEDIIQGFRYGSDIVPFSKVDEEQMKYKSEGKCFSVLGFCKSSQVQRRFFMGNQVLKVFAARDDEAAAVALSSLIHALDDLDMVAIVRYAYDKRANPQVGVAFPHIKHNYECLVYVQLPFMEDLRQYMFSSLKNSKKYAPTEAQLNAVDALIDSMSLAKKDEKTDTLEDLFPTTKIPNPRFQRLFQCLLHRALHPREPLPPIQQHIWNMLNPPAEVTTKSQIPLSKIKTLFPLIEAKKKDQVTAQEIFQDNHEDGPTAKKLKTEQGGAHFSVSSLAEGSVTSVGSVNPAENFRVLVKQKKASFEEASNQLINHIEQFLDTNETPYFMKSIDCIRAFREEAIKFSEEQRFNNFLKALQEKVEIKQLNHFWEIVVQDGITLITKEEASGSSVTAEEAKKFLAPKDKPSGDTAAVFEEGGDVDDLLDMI
T1 sequence (P12956 1-544, stated change not applied): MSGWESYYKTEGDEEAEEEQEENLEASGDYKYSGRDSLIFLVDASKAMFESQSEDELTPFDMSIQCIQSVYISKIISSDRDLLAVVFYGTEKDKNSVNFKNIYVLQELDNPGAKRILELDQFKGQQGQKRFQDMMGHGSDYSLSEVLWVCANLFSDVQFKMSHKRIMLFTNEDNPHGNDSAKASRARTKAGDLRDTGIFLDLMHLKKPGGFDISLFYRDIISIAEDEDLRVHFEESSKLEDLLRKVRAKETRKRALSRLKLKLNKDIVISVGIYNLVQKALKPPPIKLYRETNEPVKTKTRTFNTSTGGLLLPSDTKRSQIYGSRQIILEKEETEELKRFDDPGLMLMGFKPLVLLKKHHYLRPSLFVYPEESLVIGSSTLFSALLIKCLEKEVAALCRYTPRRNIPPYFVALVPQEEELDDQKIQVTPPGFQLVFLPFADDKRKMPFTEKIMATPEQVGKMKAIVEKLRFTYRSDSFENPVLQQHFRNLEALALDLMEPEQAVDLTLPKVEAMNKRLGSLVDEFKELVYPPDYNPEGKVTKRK
T1 sequence (P13010 1-551, stated change not applied): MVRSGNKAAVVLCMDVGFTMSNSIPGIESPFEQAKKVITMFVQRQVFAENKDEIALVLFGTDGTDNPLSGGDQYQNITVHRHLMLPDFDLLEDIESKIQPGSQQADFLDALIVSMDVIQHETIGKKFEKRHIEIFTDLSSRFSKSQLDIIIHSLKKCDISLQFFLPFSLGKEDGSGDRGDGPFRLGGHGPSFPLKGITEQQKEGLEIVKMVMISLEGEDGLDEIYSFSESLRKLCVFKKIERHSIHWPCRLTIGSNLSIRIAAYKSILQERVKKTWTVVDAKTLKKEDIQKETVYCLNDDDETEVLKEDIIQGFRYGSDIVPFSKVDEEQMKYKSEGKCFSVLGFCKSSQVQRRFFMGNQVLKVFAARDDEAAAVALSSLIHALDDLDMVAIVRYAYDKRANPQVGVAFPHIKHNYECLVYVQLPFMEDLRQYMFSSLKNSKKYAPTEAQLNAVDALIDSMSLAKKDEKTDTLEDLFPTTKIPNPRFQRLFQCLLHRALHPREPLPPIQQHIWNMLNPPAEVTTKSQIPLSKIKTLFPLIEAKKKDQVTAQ

O=P(O)(O)O[C@H]1[C@H](OP(=O)(O)O)[C@@H](OP(=O)(O)O)[C@H](OP(=O)(O)O)[C@@H](OP(=O)(O)O)[C@H]1OP(=O)(O)O [IP6, inositol hexaphosphate]
weaker affinity of KuΔC compared with KuFL [1]: ~50 fold | Kd ([1]; KuΔC construct): 178 ± 12 nM | kinetic dissociation constant (kOFF) of Ku from dsDNA (Ku-DNA interaction): decreases | residence times of Ku on DNA (Ku-DNA interaction): slightly increases
